Where a name gives a salt, the structure may show the parent alone. Read-outs that look alike come from different tables or passages of the source.
Tests used:
[1] = Distribution coefficient determination (D7.4), 1-octanol / MOPS buffer; type: physicochemical; conditions: 1-octanol / MOPS buffer pH 7.4
Experimental: MOPS buffer (50 mM, pH=7.4) and 1-octanol were used as the aqueous phase and the organic phase, respectively, for distribution coefficient determinations. The MOPS buffer and 1-octanol were pre-saturated with each other before use.
In a typical experiment, an organic stock solution of Apo6618 (1-cyclopropyl-3-hydroxy-6-methyl-4-oxo-1,4-dihydro-pyridine-2-carboxylic acid cyclopropylamide) was prepared by weighing out 0.50 mg of the compound into a 10-mL volumetric flask and bringing to volume with 1-octanol. The solution was then sonicated for 60 minutes so that the sample could dissolve completely. The concentration of the stock solution was calculated as C^0org=2.0×10^−4 M. The organic standard solution of Apo6618 with 2.0×10^−5 M was prepared in a 10-mL volumetric flask by 10 times dilution of the stock solution with 1-octanol. The sample solution was prepared in a 10-mL volumetric flask. The stock sample solution (3 ml) was pipetted into the flask followed by the addition of MOPS buffer (3 ml). The standard and sample solutions were then vortexed for 2 hours. After vortexing, the solutions were transferred to test tubes and centrifuged at 4000 rpm for 15 minutes. UV-Vis spectra were recorded for the standard solution and the organic (top) phase of the sample solution at 22° C. The distribution coefficient, D7.4, was calculated using the following equation: D7.4=[Aorg/(C^0orgεorg−Aorg)]×(Vaqu/Vorg)
Where εorg=the molar extinction coefficient of the peak wavelength (λmax) obtained from the UV-Vis spectrum of the organic standard solution; Aorg=absorbance of the organic phase in the sample solution at the same λmax; C^0org=the concentration of the stock solution; Vaqu=the volume of MOPS buffer in the sample solution; Vorg=the volume of the stock solution in the sample solution.

[2] = pKa determination by potentiometric or spectrophotometric titration; type: physicochemical; conditions: titration in 0.1 M NaCl at 22° C.
Experimental: The pKa values of ligands were determined by potentiometric titration when a ligand concentration greater than 1×10^−2 M in water could be prepared. In a typical experiment, the sample solution (2.67×10^−2 M) was prepared by the following method: Apo6619 (92.6 mg) was weighed into a 25-ml beaker, followed by the addition of 0.1 M NaCl (15 ml). The mixture was sonicated for 10 minutes to give a clear colorless solution. Nitrogen gas was then allowed to bubble through the solution. 1.000 N Hydrochloric acid (624 μl, 1.5 equivalent) was added to the solution to give pH 1.88. The solution was allowed to equilibrate at 22° C. for 60 minutes.
The solution was then titrated against 1.000 N NaOH at 22° C. to reach pH 11.8. For each addition of base, the solution was allowed to equilibrate until a constant pH reading was reached. The volume of the base added and the pH reading were recorded for each measurement. 137 measurements were taken to finish the experiment.
The data set of pH vs. base volume was analyzed using Hyperquad 2000 (Version 2.1, Peter Gans, University of Leeds).
The pKa values of ligands can be determined by spectrophotometric titration when both the conjugated acid and base absorb in the UV-Visible region. In a typical experiment, the sample solution was prepared by the following method: Apo6617 (0.792 mg) was weighed into an 80-ml beaker, followed by the addition of 0.1 M NaCl (50 ml). The mixture was sonicated for 5 minutes to give a clear colorless solution. Nitrogen gas was allowed to bubble through the solution. 1.000 N NaOH (50 μl) was added to give pH 10.9. The solution was allowed to equilibrate at 22° C. for 1 hour. A sipper system was used for the circulation of the sample solution between the beaker and the flow cell.
The sample solution was titrated against standard hydrochloric acid solutions at 22° C. to reach pH 1.40. After each addition of acid the solution was allowed to equilibrate until a constant pH reading was reached. The pH and the UV-Vis spectrum were recorded for each measurement. The peak wavelengths of the deprotonated species (L^−), the neutral species (LH), and the protonated species (LH2^+) were 314 nm, 281 nm, and 249 nm, respectively. In the region of pH>6, after each addition of acid there was a slight decrease in the absorbance at 314 nm and a slight increase at 281 nm in each spectrum, whereas in the region of pH<5, after each addition of acid there was a slight decrease in the absorbance at 281 nm and a slight increase at 249 nm in each spectrum. The solution was titrated until there was no obvious change in the spectra after several subsequent additions of acid. 116 measurements were taken to finish the experiment.
The resulting data set was then analyzed using pHAB (Peter Gans, University of Leeds).

[3] = Metal complexation constants, Fe system (spectrophotometric titration; pM by Hyss); type: binding; conditions: for Log β3: Fe(III) overall complexation constant; for pFe^3+: total iron 10^−6 M, ligand 10^−5 M, pH 7.4, calculated from experimental pKa and complexation constants
Experimental: Compounds of this invention are designed to improve properties to known deferiprone analogues. […]. The definition of pFe^3+ used herein is the concentration of ferric ion in solution when the total amount of iron equals 10^−6 M and the concentration of ligand is 10^−5 M and pH is 7.4. It is calculated using experimental determined pKa and metal complexation constants using Hyperquad software (Version 2.1, Peter Gans, University of Leeds). The lowering of the pKa value of the C3 phenolic OH to less than 8.8 ensures that a higher pFe^3+ value when combined with a favorable complexation constant β3. The concept of complexation is detailed below.
The stepwise and overall complexation constants of a bidentate ligand such as 3-hydroxy-4-pyridinone follow: Fe(III)+Ligand→Fe[Ligand]1K1 Fe[Ligand]1+Ligand→Fe[Ligand]2K2 Fe[Ligand]2+Ligand→Fe[Ligand]3K3 Complexation constant β3=K1.K2.K3
Stepwise formation constants for M^n+-ligand systems were determined by spectrophotometric titration when metal complexes have a strong absorbance in the visible region due to ligand to metal charge transfer. In a typical experiment, the sample solution was prepared according to the following method: Apo6619 (10.7 mg) was weighed into an 80-ml beaker, followed by the addition of 0.1 M NaCl (50 ml). The mixture was sonicated for 10 minutes to give a clear colorless solution. Iron stock solution (atomic absorption standard, Aldrich, 496 μl, 8.93E-06 moles) was pipetted into the solution followed by the addition of 1.000 N NaOH (137 μl). The molar ratio between the total iron and the total Apo6619 was 1:5.4. The mixture was allowed to equilibrate at room temperature overnight. Nitrogen was allowed to bubble through the solution. 1.000 N Hydrochloric acid (3 ml) was then added to the solution to give pH 1.5. The solution was allowed to equilibrate at 22° C. for 3 hours.
A sipper system was used for the circulation of the sample solution between the beaker and the flow cell.
The sample solution was titrated against standard NaOH solutions at 22° C. to reach pH 6.89. After each addition of base the solution was allowed to equilibrate until a constant pH reading was reached. The pH and the UV-Vis spectrum were recorded for each measurement. For each measurement enough base was added so that there was a slight increase in the absorbance of the spectrum. The solution was titrated until there was no obvious increase in the spectra after several subsequent additions of base. Altogether 64 measurements were taken to finish the experiment.
[…]; pM^n+ is defined as −log [M(H2O)m]^n+ at physiological conditions, i.e.: pH 7.4, a ligand concentration of 10 μM, and a metal concentration of 1 μM.
To calculate pM^n+ for a MLn system, βn and pKa values are needed (βn are the formation constants for M^n++n L^− ? MLn; pKa are the equilibrium constants for L^−+n H^+ ? LHn^(n−1)+). The pM^n+ can be calculated by using Hyss software (Hyperquad Stimulation and Speciation software: HYSS2© 2000 Protonic Sofware).

[4] = U.S. Pat. No. 6,335,353; cited from earlier work
[5] = Redox potentials of iron complexes by cyclic voltammetry; type: physicochemical; conditions: glassy carbon working electrode, 2.0 mM, pH 7.4; for E1/2 / Ep^ox / Ep^red: vs Ag/AgCl
[6] = cited from earlier work

Row | D7.4 [1] | pKas (higher value, phenolic C3 OH) [2] | pKas (lower value, LH2+) [2] | Compound | Log β3 [3] | pFe^3+ [3] | also measured
1 | 0.04 | 8.5 | 2.7 | CNC(=O)c1c(O)c(=O)cc(C)n1C [CP502, 1,6-Dimethyl-3-hydroxy-4(1H)-pyridinone-2-carboxy-(N-methyl)-amide hydrochloride, reference compound] | 33.6 | 20.9 | O-glucuronidation at the C3 oxygen [4]: effectively blocked the O-glucuronidation
2 | 0.78 | 8.7 | 2.7 | Cc1cc(=O)c(O)c(C(=O)NC2CCCC2)n1C [Apo6620, N-cyclopentyl-3-hydroxy-1,6-dimethyl-4-oxo-1,4-dihydro-pyridine-2-carboxamide] | 33.8 | 20.3 | melting point: 289.3 °C (dec.)
3 | 0.331 | 8.6 | 2.5 | Cc1cc(=O)c(O)c(C(=O)NC2CC2)n1C1CC1 [Apo6618, 1-Cyclopropyl-3-hydroxy-6-methyl-4-oxo-1,4-dihydro-pyridine-2-carboxylic Acid Cyclopropylamide] | 33.6 | 20.5 | –

Continued, compound first:

Row | Compound | D7.4 [1] | pKas (higher value, phenolic C3 OH) [2] | pKas (lower value, LH2+) [2] | Log β3 [3] | pFe^3+ [3] | also measured
4 | Cc1cc(=O)c(O)c(C(=O)NC2CCCCC2)n1C [Apo6621, 3-Hydroxy-1,6-dimethyl-4-oxo-1,4-dihydro-pyridine-2-carboxylic Acid Cyclohexylamide] | 2.2 | 8.7 | 2.5 | 34.3 | 20.9 | –
5 | CC(=O)N([O-])CCCCCNC(=O)CCC(=O)N([O-])CCCCCNC(=O)CCC(=O)N([O-])CCCCCN.[Fe+3] [Fe(DFO)] | – | – | – | – | – | ΔEp [5]: 112 mV; E1/2 [5]: −698 mV; Ep^ox [5]: −642 mV; Ep^red [5]: −754 mV; E1/2 literature value ([6]; vs Ag/AgCl, Crumbliss et al, Inorganic Chemistry 2003): −688 mV
6 | Fe-transferrin: iron bound to transferrin in human blood | – | – | – | – | – | E1/2 ([6]; vs. Ag/AgCl): −720 mv; E1/2 ([6]; vs. NHE): −500 mv
7 | Cc1cc(=O)c(O)c(C(=O)NC2CCC2)n1C [Apo6622, N-cyclobutyl-3-hydroxy-1,6-dimethyl-4-oxo-1,4-dihydropyridine-2-carboxamide] | 0.357 | 8.6 | 2.8 | 33.9 | 20.8 | –
8 | Cc1c([O-])c(=O)ccn1C.Cc1c([O-])c(=O)ccn1C.Cc1c([O-])c(=O)ccn1C.[Fe+3] [Fe(deferiprone)3] | – | – | – | – | – | ΔEp [5]: 107 mV; E1/2 [5]: −834 mV; Ep^ox [5]: −780 mV; Ep^red [5]: −887 mV
